Measurements reported in patent US10512669B2, “Blockade of inflammatory proteases with cyclic peptides” (The Regents of the University of California, priority 2011, dated 2019).
Bridge positions count the residues as written; N and C are the ends. Peptide text beside a SMILES is read from it.

Assays:
in vitro = conditions: human, plasma
[1] = 50 μg/ml in 50 mg/ml human serum albumin, 72 hours, room temperature
chimpanzees = experiment: escalating i.v. doses in adult chimpanzees: toxicity and immunogenicity; conditions: two adult chimpanzees
[2] = target: recombinant TACE (rTACE, ADAM17) (Homo sapiens, UniProt P78536); experiment: recombinant TACE fluorometric inhibition assay; assay type: biochemical
recombinant TACE (rTACE, ADAM17), sequence (P78536 215-824): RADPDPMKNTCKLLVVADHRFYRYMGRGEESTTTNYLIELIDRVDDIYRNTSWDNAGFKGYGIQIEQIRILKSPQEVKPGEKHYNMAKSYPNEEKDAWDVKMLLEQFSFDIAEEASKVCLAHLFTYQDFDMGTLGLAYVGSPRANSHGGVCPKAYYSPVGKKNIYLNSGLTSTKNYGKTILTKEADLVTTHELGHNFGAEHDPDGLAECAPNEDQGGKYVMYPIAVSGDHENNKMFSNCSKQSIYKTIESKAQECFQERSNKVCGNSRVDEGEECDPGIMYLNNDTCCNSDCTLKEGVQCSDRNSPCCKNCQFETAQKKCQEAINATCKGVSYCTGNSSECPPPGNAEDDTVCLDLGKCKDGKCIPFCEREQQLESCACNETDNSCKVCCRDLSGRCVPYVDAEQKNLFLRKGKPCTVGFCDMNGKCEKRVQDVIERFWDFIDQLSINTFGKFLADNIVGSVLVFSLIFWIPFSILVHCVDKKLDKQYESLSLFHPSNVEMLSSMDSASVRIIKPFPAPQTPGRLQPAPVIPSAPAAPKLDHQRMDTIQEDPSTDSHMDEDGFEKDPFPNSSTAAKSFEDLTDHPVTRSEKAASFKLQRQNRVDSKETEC

[3] = target: TACE expressed on THP-1 cells (Homo sapiens, UniProt P78536); conditions: read-out: IC50 TACE blockade on THP-1 cells; literature study (ref. 1); cited from earlier work
TACE expressed on THP-1 cells, sequence (P78536 215-824): as above

CC[C@H](C)[C@@H]1NC(=O)[C@@H]2CSSC[C@H](NC(=O)[C@H](CCCNC(=N)N)NC(=O)[C@@H]3CSSC[C@H](NC1=O)C(=O)N[C@@H]([C@@H](C)O)C(=O)N[C@@H](CCCNC(=N)N)C(=O)NCC(=O)N[C@@H](Cc1ccccc1)C(=O)N3)C(=O)N[C@@H](CC(C)C)C(=O)N[C@H]1CSSC[C@H](NC(=O)[C@H](C(C)C)NC(=O)CNC(=O)[C@H](CCCNC(=N)N)NC(=O)[C@H](CCCNC(=N)N)NC1=O)C(=O)N[C@@H](CCCNC(=N)N)C(=O)N2 [RTD-1] (cyclo(GFCRCLCRRGVCRCICTR); disulfide 3-16, 5-14, 7-12 (inferred); ring closure inferred)
remaining at 72 h, 50 μg/ml (in vitro): > 95%
peptide unaltered [1]: more than 95%
antibody to RTD-1 (immunogenicity) (chimpanzees): Neither animal produced an antibody
clinical chemistry and hematologic laboratory values (chimpanzees; following all injections): within normal limits

HNP-4: human α-defensin from neutrophils (VCSCRLVFCRRTELRVGNCLIGGVSFTYCCTRV)
inhibition of rTACE [2]: neither human α-defensin (HNP-2 (SEQ_ID NO. 31), HNP-4 (SEQ_ID NO. 33)) inhibited rTACE

CNC(=O)[C@H](Cc1c[nH]c2ccccc12)NC(=O)[C@@H](CC(=O)NO)CC(C)C [GM6001]
IC50 [3]: 5.5 µM

HNP-2: human α-defensin from neutrophils (CYCRIPACIAGERRYGTCIYQGRLWAFCC)
inhibition of rTACE [2]: neither human α-defensin (HNP-2 (SEQ_ID NO. 31), HNP-4 (SEQ_ID NO. 33)) inhibited rTACE
